From ChEMBL document CHEMBL4321875, “Potent, Selective, Water Soluble, Brain-Permeable EP2 Receptor Antagonist for Use in Central Nervous System Disease Models” (J Med Chem, 2020)
≈ marks a conversion by molar mass, not a printed value.

Key:
[1] = Aqueous solubility in PBS pH 7.4 incubated for 24 hrs by nephelometry; assay type: physicochemical
[2] = Stability in mouse liver microsomes assessed as half life at 1 uM incubated for 120 mins by LC-MS/MS analysis; assay type: ADME, Microsome; conditions: 2 h
[3] = Solubility of compound at 2 mg/ml incubated for 24 hrs by shake flask thermodynamic solubility method based HPLC analysis; assay type: physicochemical

solubility kinetic at 24 h [1]	t1/2 [2]	solubility thermodynamic at 24 h [3]	Compound
206 µM (≈ 75.1 µg/mL)	–	–	Cc1[nH]c2ccccc2c1CCNC(=O)c1ccc(N2CCOCC2)nc1
38 µM (≈ 14.2 µg/mL)	–	–	Cc1[nH]c2ccccc2c1CCNC(=O)c1cnc(Nc2ccncc2)nc1
45 µM (≈ 20.5 µg/mL)	–	–	Cc1cc(C)nc(Nc2ncc(C(=O)NCCc3c(C(F)(F)F)[nH]c4ccccc34)cn2)c1
25 µM (≈ 9.66 µg/mL)	8 min	–	Cc1ccnc(Nc2ncc(C(=O)NCCc3c(C)[nH]c4ccccc34)cn2)c1
–	–	700 µM	Cc1cc(C)nc(Nc2ncc(C(=O)NCCc3c(C(F)(F)F)[nH]c4ccccc34)cn2)c1.Cl
100 µM (≈ 40 µg/mL)	–	–	Cc1ccc(Nc2ncc(C(=O)NCCc3c(C)[nH]c4ccccc34)cn2)c(C)n1

Compound	solubility kinetic at 24 h [1]	t1/2 [2]	solubility thermodynamic at 24 h [3]
Cc1[nH]c2ccccc2c1CCNC(=O)c1ccc(N2CCOCC2)cc1	70 µM (≈ 25.4 µg/mL)	–	–
